Test results: PMC12257510, “Structure-Guided Design of a KMT9 Inhibitor Prodrug with Cellular Activity” (Journal of Medicinal Chemistry, 2025)
Like-named read-outs stand apart in the source and are kept apart here. Values belong to the compound of their own block, whether it stands above or below them.

Columns and labels:
[1] = molecular target: T1, KMT9 (Homo sapiens, UniProt Q9Y5N5); test: Thermal shift assay (SyproOrange); format: binding; settings: thermal shift, 2 μM KMT9, 500 μM compound; read-out: ΔTm
T1 sequence (Q9Y5N5 1-214): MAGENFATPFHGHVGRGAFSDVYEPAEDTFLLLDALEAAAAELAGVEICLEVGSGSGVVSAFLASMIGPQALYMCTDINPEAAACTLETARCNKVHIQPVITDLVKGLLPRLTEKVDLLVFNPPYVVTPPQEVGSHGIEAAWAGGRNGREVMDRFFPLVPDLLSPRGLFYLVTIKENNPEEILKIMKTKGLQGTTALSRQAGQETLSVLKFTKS
T1 sequence (Q9UI30 1-125 partner): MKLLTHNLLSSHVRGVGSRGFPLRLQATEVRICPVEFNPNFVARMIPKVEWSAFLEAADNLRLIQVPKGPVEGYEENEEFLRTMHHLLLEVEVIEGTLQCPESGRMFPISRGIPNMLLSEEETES
Protocol: The assay was carried out in 96-well Hard-Shell PCR plates (Bio-Rad Laboratories Inc.). […] Final assay concentrations were set to 500 μM of compound 8, 2 μM KMT9 and 5× SO. One μL of 20× compound, 4 μL of assay buffer, 10 μL of 2× KMT9 and 5 μL of 4× SO were pipetted. For the no-compound control, 20× inhibitor stock was replaced by DMSO. The final volume was 20 μL. The plate was spun down at 700 rpm for 1 min using a Hettich UNIVERSAL 320 centrifuge and incubated at 25 °C, shaking at 600 rpm. After incubation, the plate was spun down for 1 min at 700 rpm and measurement was conducted using a CFX96 Touch Real-Time PCR Detection System (Bio-Rad Laboratories Inc.). The plate was equilibrated at 20 °C for 4 min and then heated stepwise at a rate of 1 °C per 15 s until 95 °C. After every step, fluorescence was measured in FRET mode. Calculation of melting points was conducted by a Boltzman sigmoidal model using GraphPad Prism 7.0.

[2] = molecular target: T1, KMT9; test: KMT9 methyltransferase inhibition assay (3H-SAM, ETF1 substrate)
Protocol: The assay was carried out in 0.5 mL Eppendorf tubes in duplicates. Assay buffer consisted of 50 mM BTP, 1 mM MgCl2, 1 mM DTT and 0,01% Triton-X100 at a pH of 8.5 (adjusted using 1 M HCl and 1 M NaOH). 20X inhibitor stock (in DMSO), 2× enzyme stock and 4× substrate mix (both in assay buffer) were prepared. The substrate mix consisted of Tritium-labeled S-adenosylmethionine (3H-SAM), S-adenosylmethionine (SAM) and eukaryotic peptide chain release factor subunit1 (, residues 140–275) (ETF1). Final assay concentrations were set to 25 nM KMT9, 0.3 μM 3H-SAM, 0.7 μM SAM and 5 μM ETF1. […] Five μL of 4× substrate mix was added to initiate the reaction. The final reaction volume was 20 μL. For the positive control, the compound was replaced by DMSO; for the negative control, the compound was replaced by DMSO and KMT9 was replaced by assay buffer. The reaction mix was incubated in an Eppendorf thermomixer comfort at 30 °C for 2 h, shaking at 300 rpm. The reaction was quenched using 5 μL 50% trichloroacetic acid (TCA) and incubated at 25 °C for 5 min. Twenty-two μL of the mixture was transferred into 96-well MultiScreenHTS FB filter plates (Merck KGaA, Darmstadt, Germany) and washed four times with 10% TCA and two times with 100% ethanol. The plate was dried overnight, the filters were transferred into individual 6 mL Pony Vials (PerkinElmer Inc., Waltham, MA, USA) and incubated in 3 mL of Ultima Gold scintillation cocktail (PerkinElmer Inc., Waltham, MA, USA) for 30 min. The scintillation signal was measured for 3× 1 min using TriCarb 2910 TR (PerkinElmer) scintillation counter in 3H CPM mode (LL: 0, UL: 18.6).
Inhibition was calculated using the following formula: Inhibition[%]=(1−xc−xpos/xpos−xneg)×100
With xc: signal of compound, xpos: mean signal of positive control, xneg: mean signal of negative control. Data fitting was carried out by GraphPad 7.0 using nonlinear fit ([Inhibitor] vs response – variable slope (four parameters)).

[3] = molecular target: T2, endogenous KMT9a (Homo sapiens, UniProt Q9Y5N5); test: CETSA in intact SW480 cells, KMT9; format: cell-based; settings: 18 h, vs DMSO
T2 construct: increased thermal stability of endogenous KMT9 in SW480 cell lysates; endogenous in cells; host or cells: SW480
T2 sequence (Q9Y5N5 1-214): T1 sequence (Q9Y5N5 1-214)
T2 sequence (Q9UI30 1-125 partner): T1 sequence (Q9UI30 1-125 partner)
Protocol: (§1) For whole cell CETSA, the cells were incubated with 10/15 μM of compound 7b/8/8-N for 18 h. Then, cells were washed with cell culture medium, detached from the surface using trypsin, washed with PBS and the number of cells was determined. Cell concentration was adjusted to 3.6 × 10^7 cells/mL using in PBS with Complete (w/o EDTA, Roche) protease inhibitor. Then, cells were frozen in liquid nitrogen and thawed at 25 °C three times, before being divided in 16 aliquots. Each aliquot was heated to a defined temperature between 40 and 70 °C in a PCR cycler (16 well gradient, 55 °C ± 15). After 3 min incubation, aliquots were snap frozen in liquid nitrogen and thawed at 25 °C. Cell lysates were then centrifuged at 20,000 × g , 4 °C for 20 min. Supernatant were mixed with 5× loading buffer, heated to 70 °C for 5 min and analyzed by Western blotting essentially as previously described. For the CETSA performed with cell lysates, cells were directly harvested and lysed as described above. The lysates were then split and incubated either with DMSO or 10 μM compound 7b for 2 h. Then, lysates were aliquoted again into 16 samples each and treated as described for the whole cell CETSA.

[4] = molecular target: T1, KMT9; test: Microscale thermophoresis (MST) binding assay; settings: for Kd: MST, binding to KMT9, read-out: Kd
Protocol: To determine the binding affinity of the compound and KMT9, microscale thermophoresis (MST) analysis was performed with a NanoTemper Monolith NT.115 instrument (NanoTemper Technologies GmbH). KMT9 was labeled with a RED-Tris-NTA labeling kit (NanoTemper Technologies GmbH) based on the manufacturer’s instructions. Buffer including 25 mM HEPES (pH 7.5), 100 mM NaCl, 1 mM DTT and 0.05% Tween was used for the reaction buffer. Varying concentrations of compounds were titrated against His-tag labeled KMT9 proteins (20 nM). Samples were loaded into standard Capillaries (NanoTemper Technologies GmbH) and MST measurements were performed using 40% MST power and 100% LED power. For each set of binding experiments, MST measurement was carried out with Binding Affinity module in MO. Control program under Nano-RED excitation. Data sets were processed with the MO.Affinity Analysis software (NanoTemper Technologies GmbH).

[5] = molecular target: T2, endogenous KMT9a; test: CETSA in SW480 cell lysate, KMT9; format: binding; settings: 2 h, vs DMSO
Protocol: as §1

[6] = molecular target: T3, KMT5A (Homo sapiens, UniProt Q9NQR1); test: CETSA in SW480 cell lysate, KMT5A (negative control); format: binding; set-up: endogenous in cells; host or cells: SW480; settings: negative control protein
T3 sequence (Q9NQR1 1-393): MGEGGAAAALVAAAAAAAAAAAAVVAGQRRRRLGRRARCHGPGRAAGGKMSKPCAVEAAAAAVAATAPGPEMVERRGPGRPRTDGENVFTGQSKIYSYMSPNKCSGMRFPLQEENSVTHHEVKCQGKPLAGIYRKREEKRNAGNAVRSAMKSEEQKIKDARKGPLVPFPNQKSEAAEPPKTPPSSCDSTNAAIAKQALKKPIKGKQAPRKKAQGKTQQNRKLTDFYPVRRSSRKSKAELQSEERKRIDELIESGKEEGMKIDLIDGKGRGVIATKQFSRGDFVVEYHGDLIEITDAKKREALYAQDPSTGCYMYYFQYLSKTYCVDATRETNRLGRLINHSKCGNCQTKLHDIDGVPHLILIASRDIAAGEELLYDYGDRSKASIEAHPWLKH
Protocol: as §1, with “The lysates were then split and incubated either with DMSO or 10 μM compound 7b for 2 h. Then, lysates were aliquoted again into 16 samples each and treated as described for the whole cell CETSA.” left out
(§2) Figure S4. […] Representative Western blots (A) and quantification (B) showing no obvious shifting melting temperatures (ΔT m) of endogenous KMT5A upon treatment with compound 7b compared to DMSO. […]
(§3) Representative Western blots (C) and quantification (D) showing no shifting melting temperatures (ΔT m) of endogenous KMT5A upon treatment with compound 8 compared to DMSO. […]

[7] = molecular target: T1, KMT9; set-up: method as in previous study; settings: compound 2d taken as a reference from the previous study; ref previous study; cited from earlier work
[8] = molecular target: T1, KMT9; set-up: method as in previous study; settings: compound 2d taken as a reference from the previous study; ref previous study; cited from earlier work; remark: listed apart in the source
[9] = molecular target: T1, KMT9; set-up: method as in previous study; settings: compound 2d taken as a reference from the previous study; ref previous study; cited from earlier work; remark: listed apart in the source
[10] = tested on: H4K12me1 levels in PC-3 M prostate tumor cells; test: Western blot of cellular H4K12me1 levels; format: cell-based; settings: PC-3 M cells, 10 μM, 3 days
Protocol: 7 Cellular activity of prodrug compound 8. (A) Levels of H4K12me1 in PC-3 M prostate tumor cells cultured in the presence of DMSO (−), 10 μM compound 8 or compound 8-N for 3 days were analyzed by Western blot using the indicated antibodies. Histone H4 was used as control. (B, C) Proliferation of Caco-2 cells treated with DMSO (Ctrl), compound 8, or compound 8-N were measured by Xcelligence. Data represent means ± s.d (n = 3). (D) Proliferation of HepG2 cells upon treatment of DMSO (Ctrl) and compound 8.
Experiments were performed as previously described. Histones used for Western blot analysis were extracted from cells as following: Cells were harvested, washed with PBS, resuspended in Triton Extraction Buffer (TEB; PBS, Triton ×100, 2 mM PMSF, 0.02% NaN3), stored 10 min on ice, centrifuged, and supernatant was discarded. After washing cells, a second time with TEB, pellets were resuspended in 0.2 N HCl and histones were acid-extracted overnight at 4 °C. Upon centrifugation for 10 min at 2000 rpm, supernatant was collected and protein concentration was determined. Three days before harvesting, cells were transfected with siRNA as indicated. The following antibodies were used: anti-KMT9α (#27630, lot 20062017, Schüle Lab), antihistone H4 (#ab10158, lot GR322677–1, Abcam), anti-H4K12me1 (#27429, lot 27062017, Schüle Lab).

[11] = tested on: Caco-2 cells; test: Cell proliferation assay (X-Celligence), Caco-2; format: cell-based; settings: Xcelligence, vs DMSO
Protocol: Cell proliferation was determined using the X-Celligence RTCA system (Roche). For real-time recording of SW480, Caco-2 cell proliferation, 5000 cells/well were seeded in 16 well E-plates (Roche). […] Cell indices were automatically recorded every 15 min. Relative velocities represent the change of the cell index over time. The sequences of the siRNAs (Stealth RNAi siRNAs; Life Technologies) used in the experiments have been previously described.

[12] = molecular target: T4, KMT9a (Homo sapiens, UniProt Q9Y5N5); test: CETSA in Caco-2 cells, KMT9; format: cell-based; set-up: of endogenous KMT9 upon treatment with; endogenous in cells; host or cells: Caco-2; settings: 15 μM
T4 sequence (Q9Y5N5 1-214): T1 sequence (Q9Y5N5 1-214)
T4 sequence (Q9UI30 1-125 partner): T1 sequence (Q9UI30 1-125 partner)
Protocol: as §1, with “The lysates were then split and incubated either with DMSO or 10 μM compound 7b for 2 h. Then, lysates were aliquoted again into 16 samples each and treated as described for the whole cell CETSA.” left out
as §2, §3

[13] = tested on: panel of 27 SET domain-containing and 14 Rossmann-fold methyltransferases; test: Selectivity assay, radiometric methyltransferase panel; format: biochemical; settings: IC50 panel, 3H-labeled SAM
Protocol: Selectivity profile of compound 6 was evaluated by testing the IC50 in a panel of methyltransferases. The IC50 of a panel of SET-domain containing and Rossmann-fold methyltransferases was assessed in a radiometric assay measuring substrate methylation using ^3H-labeled SAM by RBC Corp by compound 6. Data was process and plotted using KNIME Analytic Platform from KNIME AG.

- ΔTm at 500 µM [1]: 19.7 °C
- IC50 [2]: 160 nM
- ΔTm at 10 µM [3]: 1.8 °C
- Kd ([4]; given in nM): 12 nM
- Kd [4]: 10 nM
- ΔTm at 10 µM [5]: 10.9 °C
- ΔTm at 10 µM [6]: 1.1 °C
Compound: CNc1ncnc2c1ccn2[C@@H]1C[C@H](CN(CCCNCCc2ccc(Oc3ccc(Cl)cc3)c(F)c2)CC[C@H](N)C(=O)O)[C@@H](O)[C@H]1O [compound 7b, (s)-2-Amino-4-((3-((4-(4-chlorophenoxy)-3-fluorophenethyl)amino)propyl) (((1R,2R,3S,4R)-2,3-dihydroxy-4-(4-(methylamino)-7H-pyrrolo[2,3-d]pyrimidin-7-yl)cyclopentyl)methyl)amino)butanoic Acid]

- Increase of binding compared to compound 1 ([4]; Kd ratio vs compound 1): about 1000 fold
Compound: NCCCN(CC[C@H](N)C(=O)O)C[C@H]1O[C@@H](n2cnc3c(N)ncnc32)[C@H](O)[C@@H]1O [compound 2d, (S)-2-Amino-4-((((2R,3S,4R,5R)-5-(6-amino-9H-purin-9-yl)-3,4-dihydroxytetrahydrofuran-2-yl)methyl)(3-aminopropyl)amino)butanoic acid]
- ΔTm [7]: ΔTm= 18.12 K
- IC50 [8]: 29 nM
- Kd [9]: 10 nM

Compound: Ethyl (S)-2-amino-4-((3-(4-(4-chlorophenoxy)-3-fluorophenethoxy)propyl) (((1R,2R,3S,4R)-2,3-dihydroxy-4-(4-(methylamino)-7H-pyrrolo[2,3-d]pyrimidin-7-yl)cyclopentyl)methyl)amino)butanoate [compound 8-N]
- Levels of H4K12me1 [10]: no effect was observed
- ΔTm of endogenous KMT9 (CETSA) ([3]; 10 μM): −0.6 K
- Proliferation of Caco-2 cells [11]: fails to do so
- ΔTm of KMT9 (CETSA) [12]: 0.1 K

- Selectivity against SET-domain containing and Rossmann-fold MTs [13]: selective for KMT9 against other MTs
- Kd ([4]; given in nM): 30 nM
Compound: CNc1ncnc2c1ccn2[C@@H]1C[C@H](CN(CCCNCCc2ccccc2)CC[C@H](N)C(=O)O)[C@@H](O)[C@H]1O [compound 6, (S)-2-Amino-4-((((1R,2R,3S,4R)-2,3-dihydroxy-4-(4-(methylamino)-7H-pyrrolo[2,3-d]pyrimidin-7-yl)cyclopentyl)methyl)(3-(phenethylamino)propyl)amino)butanoic acid]
